Source: patent EP1505064A1, “2-Aminopyrimidine derivatives” (Bayer HealthCare AG, priority 2003, dated 2005)
Counter-ions that a name gives are not always drawn.

Biological target: human H4 (Homo sapiens, UniProt Q9H3N8)
Test: Calcium mobilization in CHO cells transfected with human H4 (Assay 1)
Type: cell-based
Conditions: calcium mobilization induced by 100 nM histamine in CHO-H4 cells; compounds at purity of about 40 to 90%; read-out: Activity Class
Description: [Calcium Mobilization in CHO cells transfected with human H4] (Assay1)
A fusion construct consisting of the n-terminal part of H4 and the C-terminal part of the G protein Gα 6 was transfected into CHO cells containing the aequorin-controlled luciferase gene (CHOAQLuci cells). Recombinant clones showing aequorin luminescence after the addition of 1 µM histamine were isolated. Starting with three independent primary cell clones three sets of tertiary clones were generated by two successive rounds of limiting dilution. Analysis of the primary clones as well as each subcloning by limiting dilution was monitored by "clone-pool analysis" comparing H4-transfected to mock-transfected (expression vector without H4 receptor cDNA) clones.
CHO-H4 cells were seeded at 2 x 10^4 cells per well in Biocoat poly-D-Lysine 96 well black/clear plates (BECTON DICKINSON, Franklin Lakes, US) in D-MEM/F12 medium supplemented with 10% FCS and 400 µg/ml Geneticin (Invitrogen GIBCO, Carlsbad, US) and 2 mM butylrate for O/N. The medium was removed and cells were loaded with 1 µM Fluo-3 (Molecular Probes, Eugene, USA) in loading solution (0.1% BSA, 20mM HEPES Hank's Buffer, 1mM probinecid) for 1 h. The loading buffer was removed and exchanged for fresh loading buffer. Cells were pretreated with various concentrations of test compounds and subjected to calcium mobilization measurement induced by 100 nM histamine by using FDSS6000.
Assay results in Assay 1 are shown in Examples and tables of the Examples below. The data corresponds to the compounds as yielded by solid phase synthesis and thus to levels of purity of about 40 to 90%. For practical reasons, the compounds are grouped in four classes of activity as follows: A IC50 20nM < B IC50 100nM C < IC50 500nM D

Sequence of human H4 (Q9H3N8 whole entry): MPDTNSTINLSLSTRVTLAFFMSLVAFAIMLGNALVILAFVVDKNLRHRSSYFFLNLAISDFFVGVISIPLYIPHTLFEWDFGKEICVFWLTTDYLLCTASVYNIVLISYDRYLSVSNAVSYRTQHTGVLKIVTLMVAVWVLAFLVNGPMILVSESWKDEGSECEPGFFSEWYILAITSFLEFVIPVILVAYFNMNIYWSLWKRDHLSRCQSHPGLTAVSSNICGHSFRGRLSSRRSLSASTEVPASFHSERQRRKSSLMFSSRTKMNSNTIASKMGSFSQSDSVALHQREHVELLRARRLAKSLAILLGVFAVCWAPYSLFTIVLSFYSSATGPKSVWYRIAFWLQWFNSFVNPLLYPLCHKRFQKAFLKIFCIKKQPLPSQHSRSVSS

**Q.** Which IC50 does the source give for `CNC1CCN(c2cc(-c3ccccc3)nc(N)n2)C1` (stereo not drawn) [Example 1, 4-[3-(Methylamino)pyrrolidin-1-yl]-6-phenylpyrimidin-2-amine trihydrochloride] here?
**A.** Its IC50 is under 20 nM.

**Q.** Which IC50 does the source give for `CNC1CCN(c2cc(-c3cccc(C#N)c3)nc(N)n2)C1` (stereo not drawn) [Example 2, 3-{2-Amino-6-[3-(methylamino)pyrrolidin-1-yl]pyrimidin-4-yl}benzonitrile trihydrochloride] here?
**A.** Its IC50 is 20 to 100 nM.

**Q.** For `Nc1nc(-c2ccccc2)cc(N2CCC(N)C2)n1` (stereo not drawn) [Example 3, 4-(3-aminopyrrolidin-1-yl)-6-phenylpyrimidin-2-amine trihydrochloride], which IC50 is on record?
**A.** Its IC50 is 20 to 100 nM.

**Q.** `CN[C@@H]1CCN(c2cc(-c3cccc([N+](=O)[O-])c3)nc(N)n2)C1` [Example 6, 4-[(3R)-3-(methylamino)pyrrolidin-1-yl]-6-(3-nitrophenyl)pyrimidin-2-amine trihydrochloride] was tested. Which IC50 did it give?
**A.** The IC50 was under 20 nM.

**Q.** `CN[C@H]1CCN(c2cc(-c3cccc([N+](=O)[O-])c3)nc(N)n2)C1` [Example 7, 4-[(3 S)-3-(methylamino)pyrrolidin-1-yl]-6-(3-nitrophenyl)pyrimidin-2-amine trihydrochloride] was tested. Which IC50 did it give?
**A.** Its IC50 is 100 to 500 nM.

**Q.** Which IC50 does the source give for `CN[C@H]1CCN(c2cc(-c3ccccc3)nc(N)n2)C1` [Example 8, 4-[(3S)-3-(methylamino)pyrrolidin-1-yl]-6-phenylpyrimidin-2-amine trihydrochloride] here?
**A.** The IC50 was 20 to 100 nM.
